For 1 molecule, IC50 results are on record in ChEMBL document CHEMBL1146248, “Cytotoxic small molecule dimers and their inhibitory activity against human breast cancer cells” (Bioorg Med Chem Lett, 2007).

For orientation: IC50 means the concentration needed to halve the response being measured. Read a low IC50 as greater potency in that assay.

One test deals with MCF7. The test can be described thus: Antiproliferative activity against human estrogen receptor positive MCF7 cells after 72 hrs. In kind it is functional, cell-based. Conditions: MCF7, 72 h.
The next test has as its system SK-BR-3. The test can be described thus: Antiproliferative activity against human estrogen receptor negative SKBr3 cells overexpressing Her2 after 72 hrs. In kind it is functional, cell-based. Conditions: SK-BR-3, 72 h.

In the case of `CO[C@H]1[C@H](OC(=O)c2ccc(C)[nH]2)[C@H](O)[C@@H](Oc2ccc3c(O)c(NC(=O)c4c[nH]c(C(=O)Nc5c(O)c6ccc(O[C@H]7OC(C)(C)[C@@H](OC)[C@H](OC(=O)c8ccc(C)[nH]8)[C@@H]7O)c(C)c6oc5=O)c4C)c(=O)oc3c2C)OC1(C)C` [COUMERMYCIN A1], the figures for the IC50 in the test on MCF7 and in the test on SK-BR-3 were 6.7 µM and 3.2 µM, respectively.
